We go through 14 compounds from patent US20240173419A1, “CDK2 DEGRADERS AND USES THEREOF” (Kymera Therapeutics, Inc., priority 2022, published 2024).

The target of the test is T1, CDK2 (Homo sapiens, UniProt P24941).
T1 construct: endogenous in cells; host or cells: MKN1 cells
Kind of test: CDK2 degradation in MKN1 cells (AlphaLISA). Also on record: key to CDK2 degradation 14 h: Mean external-Abs DC50 (nM): A (<100 nM); B (≥100-500 nM); C (>500-1000 nM); D (>1000 nM); E (not achieved). It is filed as cell-based. The note with it: 14 h incubation; for DC50: read-out: CDK2 degradation 14 h: Mean external-Abs DC50. Here is the method: Degradation of CDK2 in MKN1 cells was measured using AlphaLISA technology (PerkinElmer ALSU-TCDK2-A10K). MKN1 cells were maintained in RPMI1640 medium containing 10% FBS+1× penn/strep. Cells were seeded in 96-well plates (Corning 3599) at a density of 2e4 cells per well in 80 μL of fresh complete growth medium. Cells were incubated overnight at 37° C., 5% CO2. Compounds were then added to the cell assay plates with a final top concentration of 10 μM in a 1:5 dilution series with a total of 11 doses (0.001 nM-10 μM). The final volume per well was 160 μL and the final DMSO concentration was 0.1%. Additionally, wells containing no cells and only complete growth medium were also maintained on the cell assay plates (‘no cell’ wells) and processed along with experimental wells. After 14 hour-incubation at 37° C., 5% CO2, the medium was removed and the cells were washed once with 100 μL of 1×PBS. Following removal of PBS, 40 μL of 1× Lysis Buffer containing 1× protease and phosphatase inhibitors (Roche 4693116001; Roche 4906837001) were added to each well. The cell assay plate was agitated on a plate shaker at 350 rpm for 10 minutes at room temperature. 10 μL of each cell lysate were transferred to a 384-well plate (PerkinElmer 6007290). 10 μL of control lysates (from PerkinElmer ALSU-TCDK2-A10K kit) were added to separate wells to generate a standard curve. Activation Buffer was prepared by diluting 25-fold in combined Reaction Buffer 1 and Reaction Buffer 2. Acceptor Beads were diluted 50-fold in combined Reaction Buffers. 5 μL of Acceptor Mix were added to each well. The plate was sealed with Topseal-Aadhesive film, covered with foil, and incubated in the dark for 1 hour at room temperature. Under subdued light, the Donor Beads were diluted 50-fold in Dilution Buffer. 5 μL of Donor Mix were added to each well under subdued light. The plate was sealed with Topseal-A adhesive film, covered with foil, and incubated in the dark for 1 hour at room temperature. Under subdued light, the plates were analyzed on an EnVision Microplate Reader (PerkinElmer Model 2009-0030). The average signal from ‘no cell’ wells was subtracted from the signal in experimental wells prior to calculating Alpha signal for test compounds and negative control (0.100 DMSO). The data were analyzed using Xlfit (v5.3. 1.3) and the dose-dependent CDK2 degradation data were fit using a four-parameter logistic model to calculate DC50.
For orientation: In Alpha technology, singlet oxygen from a donor bead excites a nearby acceptor bead.

For `Cc1cc(S(=O)(=O)C2CC3(CCN(CC4CCN(c5cccc6c(N7CCC(=O)NC7=O)cncc56)CC4)CC3)C2)ccc1Nc1ncc2cc(Cl)c(=O)n(C3CCCC3)c2n1` [I-82], the “CDK2 degradation 14 h: Average Dmax %” value is given as “A (A (>75% o))” and the DC50 (in general, the concentration giving 50% degradation) was less than 100 nM.
The corresponding values for `Cc1cc(S(=O)(=O)C2CC3(CCN(CC4CCN(c5cccc6c5n(C)c(=O)n6C5CCC(=O)NC5=O)CC4)CC3)C2)ccc1Nc1ncc2cc(C(F)F)c(=O)n(C3CCCC3)c2n1` (stereo not shown) [I-86] are “A (A (>75% o))” and less than 100 nM.
The corresponding values for `Cc1cc(S(=O)(=O)C2CC3(CCN(CC4CCN(c5cccc(NC6CCC(=O)NC6=O)c5)CC4)CC3)C2)ccc1Nc1ncc2cc(Cl)c(=O)n(C3CCCC3)c2n1` (stereo not shown) [I-87] are “A (A (>75% o))” and less than 100 nM.
The corresponding values for `COc1ccc2c(c1N1CCC(CN3CCC4(CC3)CC(S(=O)(=O)c3ccc(Nc5ncc6cc(Cl)c(=O)n(C7CCCC7)c6n5)c(C)c3)C4)CC1)n(C)c(=O)n2C1CCC(=O)NC1=O` (stereo not shown) [I-88] are “A (A (>75% o))” and less than 100 nM.
With `Cc1cc(S(=O)(=O)C2CC3(CCN(CC4CCN(c5ccc(NC6CCC(=O)NC6=O)c(F)c5)CC4)CC3)C2)ccc1Nc1ncc2cc(Cl)c(=O)n(C3CCCC3)c2n1` (stereo not shown) [I-90], the “CDK2 degradation 14 h: Average Dmax %” value is recorded as “B (B (>50% -75%))” and the half-maximal degradation concentration (DC50) lay within 100 to 500 nM.
Regarding `Cc1cc(S(=N)(=O)C2CC3(CCN(CC4CCN(c5cccc6c5n(C)c(=O)n6C5CCC(=O)NC5=O)CC4)CC3)C2)ccc1Nc1ncc2cc(Cl)c(=O)n(C3CCCC3)c2n1` (stereo not shown) [I-93], the “CDK2 degradation 14 h: Average Dmax %” value is “A (A (>75% o))” and the DC50 is less than 100 nM.
The like results for `Cc1cc(S(=O)(=O)C2CC3(CCN(CC4CCN(c5cccc6c5n(C)c(=O)n6C5CCC(=O)NC5=O)CC4)CC3)C2)ccc1Nc1ncc(C(F)(F)F)c(C2CCC(C)(O)CC2)n1` (stereo not shown) [I-119] were, in that order, “A (A (>75% o))” and less than 100 nM.
The corresponding values for `Cc1cc(S(=O)(=O)C2CC3(CCN(CC4CCN(c5ccc6c(c5F)n(C)c(=O)n6C5CCC(=O)NC5=O)CC4)CC3)C2)ccc1Nc1ncc2c(n1)N(C1CCCC1)C(=O)N(C)C2` (stereo not shown) [I-125] are “A (A (>75% o))” and less than 100 nM.
The corresponding values for `Cc1cc(S(=O)(=O)C2CC3(CCN(CC4CCN(c5ccc6c(c5F)n(C)c(=O)n6C5CCC(=O)NC5=O)CC4)CC3)C2)ccc1Nc1ncc2cc(Cl)c(=O)n(C(C)C)c2n1` (stereo not shown) [I-128] are “A (A (>75% o))” and less than 100 nM.
`Cc1cc(S(=O)(=O)C2CC3(CCN(CC4CCN(c5ccc6c(c5F)n(C)c(=O)n6C5CCC(=O)NC5=O)CC4)CC3)C2)ccc1Nc1ncc2cc(Cl)c(=O)n(C3CCOC3)c2n1` (stereo not shown) [I-129]: the “CDK2 degradation 14 h: Average Dmax %” value is reported as “C (C (>25% -50%))” and the “CDK2 degradation 14 h: Mean external-Abs DC50 (nM)” value was “E”.
As to `Cc1cc(S(=O)(=O)C2CC3(CCN(CC4CCN(c5ccc6c(c5F)n(C)c(=O)n6C5CCC(=O)NC5=O)CC4)CC3)C2)ccc1Nc1ncc2cc(Cl)c(=O)n(C3CCOCC3)c2n1` (stereo not shown) [I-130], the “CDK2 degradation 14 h: Average Dmax %” value is reported as “D (D (<25%))” and the 50% degradation concentration (DC50) is greater than 1000 nM.
The like results for `Cc1cc(S(=O)(=O)C2CC3(CCN(CC4CCN(c5ccc(NC6CCC(=O)NC6=O)cc5F)CC4)CC3)C2)ccc1Nc1ncc2cc(Cl)c(=O)n(C3CCCC3)c2n1` (stereo not shown) [I-152] were, in that order, “B (B (>50% -75%))” and less than 100 nM.
For `Cc1cc(S(=O)(=O)N2CCC(C(F)(F)CN3CCN(c4cccc5c4n(C)c(=O)n5C4CCC(=O)NC4=O)CC3)CC2)ccc1Nc1ncc2cc(Cl)c(=O)n(C3CCCC3)c2n1` (stereo not shown) [I-163], the “CDK2 degradation 14 h: Average Dmax %” value is “B (B (>50% -75%))” and the half-maximal degradation concentration (DC50) was greater than 1000 nM.
The like results for `Cc1cc(S(=O)(=O)N[C@H]2C[C@H](N3CCN(CC4CCN(c5ccc6c(c5)n(C)c(=O)n6C5CCC(=O)NC5=O)CC4)CC3)C2)ccc1Nc1ncc2cc(Cl)c(=O)n(C(C)C)c2n1` (stereo partly shown) [I-203] were, in that order, “A (A (>75% o))” and less than 100 nM.
